This is an account of results in patent publication US9045483B2, “Inhibition of small ubiquitin-like modifier enzymes with substituted pyrrolo[2,3-b]quinoxalines” (City of Hope, priority 2010, dated 2015).

“Also recorded” adds a separate entry of the source. Read-outs that look alike come from different tables or passages of the source.

The target of data set [1] is T1, SUMO E1 (Homo sapiens (Human), UniProt Q9UBT2). Nature of the data set: SUMO E1 inhibition, formation of the Ubc9-SUMO thioester (biochemical assay).
T1 sequence (Q9UBT2 whole entry): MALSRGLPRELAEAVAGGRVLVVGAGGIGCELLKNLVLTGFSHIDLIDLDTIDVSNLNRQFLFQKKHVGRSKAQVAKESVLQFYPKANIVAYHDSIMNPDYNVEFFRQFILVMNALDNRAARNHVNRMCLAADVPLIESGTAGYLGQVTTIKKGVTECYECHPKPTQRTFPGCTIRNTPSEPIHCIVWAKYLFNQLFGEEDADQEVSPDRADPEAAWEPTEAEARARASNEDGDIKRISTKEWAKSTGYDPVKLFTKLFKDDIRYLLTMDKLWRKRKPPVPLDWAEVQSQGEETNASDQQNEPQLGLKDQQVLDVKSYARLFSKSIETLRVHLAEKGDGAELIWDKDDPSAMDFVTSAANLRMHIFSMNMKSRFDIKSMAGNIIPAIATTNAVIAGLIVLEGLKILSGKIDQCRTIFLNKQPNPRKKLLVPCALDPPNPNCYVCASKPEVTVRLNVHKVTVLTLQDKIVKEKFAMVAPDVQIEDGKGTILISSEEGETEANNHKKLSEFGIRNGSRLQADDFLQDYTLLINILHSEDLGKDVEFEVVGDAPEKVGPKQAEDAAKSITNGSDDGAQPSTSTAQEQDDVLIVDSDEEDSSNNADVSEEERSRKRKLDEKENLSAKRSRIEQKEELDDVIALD
T1 sequence (Q9UBE0 whole entry partner): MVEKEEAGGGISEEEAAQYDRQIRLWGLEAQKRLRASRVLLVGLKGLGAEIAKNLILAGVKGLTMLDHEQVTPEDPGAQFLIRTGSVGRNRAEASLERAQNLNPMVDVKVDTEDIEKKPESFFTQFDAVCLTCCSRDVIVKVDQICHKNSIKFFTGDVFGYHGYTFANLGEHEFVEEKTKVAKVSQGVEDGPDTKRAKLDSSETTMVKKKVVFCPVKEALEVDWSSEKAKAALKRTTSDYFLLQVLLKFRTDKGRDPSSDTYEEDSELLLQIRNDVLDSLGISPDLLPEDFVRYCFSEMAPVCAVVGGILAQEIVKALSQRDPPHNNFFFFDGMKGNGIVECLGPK
Data set [2] relates to RanGAP1 stable SUMOylation in U20S and DLD1 cells. Kind of data set: Stable SUMOylation, RanGAP1 and RanBP2 localization by immunohistochemistry. Type of data set: cell-based. To be noted: 18 hours. As to the method: Cells were treated with the compound at indicated concentration for 18 hours, and then localization of RanGAP1 and RanBP2 was detected by immunohistochemistry. Nuclei are stained with DAPI.

For a further data set, the target named is ubiquitin E1 (Homo sapiens (Human), UniProt P22314). The following applies: Ubc5-ubiquitin thioester vs Ubc9-SUMO thioester.
ubiquitin E1, sequence (P22314 whole entry, looked up): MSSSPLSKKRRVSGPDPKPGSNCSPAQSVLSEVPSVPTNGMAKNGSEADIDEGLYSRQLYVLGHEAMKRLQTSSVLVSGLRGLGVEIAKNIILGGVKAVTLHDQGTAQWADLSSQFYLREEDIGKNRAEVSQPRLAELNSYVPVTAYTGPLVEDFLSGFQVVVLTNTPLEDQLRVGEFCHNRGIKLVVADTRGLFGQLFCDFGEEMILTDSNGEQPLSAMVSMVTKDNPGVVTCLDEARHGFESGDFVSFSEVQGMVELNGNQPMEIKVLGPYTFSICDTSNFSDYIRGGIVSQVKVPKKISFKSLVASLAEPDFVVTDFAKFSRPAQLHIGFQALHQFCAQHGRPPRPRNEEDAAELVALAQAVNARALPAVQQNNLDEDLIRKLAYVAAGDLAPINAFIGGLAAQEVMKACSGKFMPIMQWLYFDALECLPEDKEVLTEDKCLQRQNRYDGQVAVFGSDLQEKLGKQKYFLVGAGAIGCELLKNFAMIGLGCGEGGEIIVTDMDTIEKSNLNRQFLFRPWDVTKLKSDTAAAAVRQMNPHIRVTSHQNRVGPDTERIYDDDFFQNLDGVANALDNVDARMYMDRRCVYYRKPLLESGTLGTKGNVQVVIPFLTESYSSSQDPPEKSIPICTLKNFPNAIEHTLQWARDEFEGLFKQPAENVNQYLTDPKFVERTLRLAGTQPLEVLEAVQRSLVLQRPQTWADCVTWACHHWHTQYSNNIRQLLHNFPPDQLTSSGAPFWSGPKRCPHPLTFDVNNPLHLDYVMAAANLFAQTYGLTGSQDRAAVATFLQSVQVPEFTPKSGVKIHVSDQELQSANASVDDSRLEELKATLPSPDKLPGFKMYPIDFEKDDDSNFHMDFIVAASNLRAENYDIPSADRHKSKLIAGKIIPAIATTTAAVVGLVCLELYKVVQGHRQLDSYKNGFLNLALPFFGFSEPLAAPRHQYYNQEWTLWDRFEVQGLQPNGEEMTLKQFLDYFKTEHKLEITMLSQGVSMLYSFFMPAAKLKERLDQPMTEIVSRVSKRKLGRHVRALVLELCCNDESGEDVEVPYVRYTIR
In data set [3] the target is T1, SUMO E1. Kind of data set: NMR saturation transfer difference (STD) competition with ATP. Type of data set: binding. The text has this: In (A), ATP spectra with assignments indicated, and the percentage of STD effects indicated for each resonance. Red spectrum indicates 2 s saturation at −30 ppm (control), blue spectrum (underneath red) indicates 2 s saturation of protein signals at 0 ppm, and green spectrum (bottom) indicates the difference between the red and blue spectra. […] […] The corresponding STD spectra are color-coded as indicated to the right. A region of the spectrum covering H2 of ATP and H12 and H13 from the compound are shown, with the H2 signal of ATP expanded in the inset. […] The titration data was used to estimate Kd of the compound.

Another data set has as its system Fa2N-4 cells. Nature of the data set: Toxicity on immortalized human hepatocytes, cellular ATP viability assay. Type of data set: cell-based. The following applies: Fa2N-4, concentrations up to 50 μM, 24 hrs. How it is done:
FIG. 9 illustrates the toxicity of the SUMO inhibitor on normal human liver cells. Immortalized human hepatocytes, Fa2N-4 cells (XenoTech) were seeded at ˜50-60K cells/well, and incubated with a range of concentrations (0.01-50 μM) 1, in duplicate, for 24 hrs at 37° C., 5% CO2. Cell viability was determined by cellular ATP levels using the Luminescence ATP Detection Assay System (Tecan).

The subject of a further data set is HIV. Type of data set: cell-based.
In a further data set the test system is 53BP1. Kind of data set: 53BP1 colocalization with γH2AX at DSB sites in IR-treated cells. Type of data set: cell-based. To be noted: 20 μM, 18 hours, 1 Gy, 1 hour recovery. The source says: (Green: γH2AX; Red: 53BP1).
Data set [4] concerns MCF7, H1299, DLD1 and SJSA cancer cell lines. Nature of the data set: Sensitization of cancer cell lines to irradiation, MTS cell survival assay. Type of data set: cell-based. To be noted: for sensitization of cancer cell lines to radiation: drug 4 hours, then 4 Gy. How it is done:
The cells were treated with different doses of the drug for 4 hours, followed by irradiation with 4 Gy and incubation for an additional 68 hours. […] Cell survival was assessed by MTS assays
Quinoxaline 1 was added to cultures of various cancer cell lines for 4 hours, after which cells were irradiated at 4 Gy. Forty-eight hours after irradiation, cell viability was measured by MTS assay.

In data set [5] the test system is global SUMOylation in HT29, HCT116 and U373 cells. Nature of the data set: Global SUMOylation in cancer cell lines, Western blot with anti-SUMO2/3 antibodies. It is filed as cell-based. To be noted: 18 hours; for inhibition of SUMOylation in cells: various concentrations, HCT116, HT29, U373. How it is done:
Western blots (probed with anti-SUMO2/3 antibodies) of cell lysates from HT29, HCT116 and U373 cells treated with compound 1. SUMO2/3 modifies many proteins as poly-SUMO chains, and is detected as high molecular weight smears. 16c indicates the control compound 2 used at concentrations of 16 μM.
Quinoxaline 1 or 2 was added to cell culture media at various concentrations for 18 hours, after which SUMOylated proteins were detected using anti-SUMO antibodies. […] Thus, quinoxaline 1 has potent and specific inhibitory effects in various cancer cell lines.

The next data set has as its system BRCA1. Nature of the data set: BRCA1 colocalization with γH2AX in IR-treated cells. It is filed as cell-based. The following applies: 20 μM, 18 hours, 1 Gy. The source says: (Green: BRCA1; Red: γH2AX).
Data set [6] deals with T1, SUMO E1. The following applies: in the presence of Mg2+; read-out: Kd of ATP binding to E1; cited from earlier work.
Setting [7] is: in vitro, read-out: IC50 for SUMO E1.

Regarding `CCCCn1c(NS(=O)(=O)c2ccccc2)c(S(=O)(=O)c2ccc(C)cc2)c2nc3ccccc3nc21` [Tricyclic Compound 1], the IC50 at SUMO E1 [1] (in vitro, listed as compound 1, read-out: IC50 for SUMO E1) is ~0.5 µM; at SUMO E1 [1] (setting [7]), 0.5 µM. Besides, the “effect on stable SUMOylation” value in data set [2] is on record as “does not disrupt stable SUMOylation”. Besides, the “IC50 for ubiquitin E1 relative to SUMO E1 (selectivity)” value is reported as > 100 fold on ubiquitin E1 and “more than 100 fold” at ubiquitin E1 (listed as quinoxaline 1). The “competition with ATP binding to E1” value on SUMO E1 [3] is “strong competition with ATP binding”; on SUMO E1 [3] (listed as quinoxaline 1) it was “competed with the binding of ATP”. Moreover, the “reduction in the STD of ATP” value at SUMO E1 [3] (30 μM inhibitor, 80 μM ATP, 2 μM E1, 0.4 mM Mg2+) is reported as “more than 60%”. At SUMO E1 [3] (estimated from competitive STD data, read-out: Kd (inhibitor-enzyme dissociation constant)), the Kd was ~180 nM. Besides, the “toxicity to human hepatocytes” value is “did not cause significant toxicity” in the data set on Fa2N-4 cells and “no toxicity was detected” in the data set on Fa2N-4 cells (listed as Quinoxaline 1). Besides, the “inhibition of HIV infection” value in the data set with HIV is recorded as “inhibited HIV infection in a dose dependent manner; also recorded: inhibits HIV infection in a dose-dependent manner”. Besides, the “53BP1 colocalization with γH2AX” value in the data set on 53BP1 (DLD1 cells) and in the data set on 53BP1 (U20S cells) was “inhibits 53BP1 colocalization with γH2AX” in each case. Besides, the “toxicity in cancer cell lines” value in data set [4] is reported as “induced some toxicity in selected cancer cell lines”. Further, the “sensitization of cancer cell lines to radiation” value in data set [4] (listed as MLS-0207587) is given as “significantly lower survival rate”; in data set [4] (listed as Quinoxaline 1) it was “significantly enhanced the sensitivity”. Also, the inhibition at 16 µM in [5] (16 μM) is > 80%. In addition, the “inhibition of SUMOylation in cells” value was “inhibits global SUMOylation in a dose-dependent manner” in data set [5] and “inhibited SUMOylation in a dose-dependent manner” in data set [5] (listed as Quinoxaline 1). In addition, the “BRCA1 colocalization with γH2AX” value was “inhibits BRCA1 colocalization with γH2AX” in the data set with BRCA1 (DLD1 cells, 1 hour recovery) and “inhibits BRCA1 colocalization with γH2AX” in the data set on BRCA1 (U20S cells, 1 hour).
As to `Nc1ncnc2c1ncn2[C@@H]1O[C@H](COP(=O)(O)OP(=O)(O)OP(=O)(O)O)[C@@H](O)[C@H]1O` [ATP], the Kd at SUMO E1 [6] was ~200 nM.
In the case of `CCCCn1c(NC(=O)c2ccccc2)c(C#N)c2nc3ccccc3nc21` [Tricyclic Compound 3], at SUMO E1 [1] (setting [7]), the IC50 worked out at 3.6 µM.
On to `CCCCn1c(NC(=O)c2ccco2)c(C#N)c2nc3ccccc3nc21` [Tricyclic Compound 10], for which the IC50 at SUMO E1 [1] (setting [7]) worked out at 5.7 µM.
Still for that read-out and setting: for `CCCCNC(=O)c1c(NC(=O)c2ccccc2Cl)n(Cc2ccccc2)c2nc3ccccc3nc12` [Tricyclic Compound 9] the value was 1.1 µM.
In the case of `C=CCn1c(NS(=O)(=O)c2ccccc2)c(S(=O)(=O)c2ccc(C)cc2)c2nc3ccccc3nc21` [Tricyclic Compound 12], at SUMO E1 [1] (setting [7]), the half-maximal inhibitory concentration (IC50) stood at 0.5 µM.
For the molecule `CCCCn1c(NC(=O)c2ccccc2)c(S(=O)(=O)c2ccccc2)c2nc3ccccc3nc21` [Tricyclic Compound 7], on SUMO E1 [1] (setting [7]), the IC50 came to 98 µM.
Same read-out and setting: next, `CCCCn1c(NC(C)=O)c(C#N)c2nc3ccccc3nc21` [Tricyclic Compound 4]: 8.3 µM; `N#Cc1c(NC(=O)c2ccccc2Cl)n(Cc2ccccc2)c2nc3ccccc3nc12` [Tricyclic Compound 5]: 25 µM.
`CCCCn1c(NC(=O)c2ccc(F)cc2)c(C#N)c2nc3ccccc3nc21` [Tricyclic Compound 13]: the IC50 at SUMO E1 [1] (-BSA, read-out: IC50(-BSA)) worked out at 0.76 µM.
Regarding `CCCCn1c(N)c(S(=O)(=O)c2ccccc2)c2nc3ccccc3nc21` [Tricyclic Compound 6], on SUMO E1 [1] (setting [7]), the IC50 was 64 µM.
As for `CCCCn1c(NC(=O)c2ccccc2Cl)c(S(=O)(=O)c2ccccc2)c2nc3ccccc3nc21` [Tricyclic Compound 11], on SUMO E1 [1] (setting [7]), the IC50 was > 100 µM.
Turning to `CCCCn1c(NC(=O)c2ccc(Cl)cc2)c(C#N)c2nc3cc(C)c(C)cc3nc21` [Tricyclic Compound 8], the IC50 on SUMO E1 [1] (setting [7]) is 4.5 µM.
Same read-out and setting: for `CCCCn1c(NC(=O)c2ccccc2Cl)c(C#N)c2nc3ccccc3nc21` [Tricyclic Compound 2] the value was 20 µM.
